Values of other authors in patent US20070155664A1, “Parathyroid hormone (pth) containing pharmaceutical compositions for oral use” (Nycomed Danmark A/S, priority 2003, published 2007).

Columns and labels:
[1] = test system: pre-menopausal women; conditions: 1200 mg calcium supplements daily, three menstrual cycles; placebo 48%
[2] = test system: postmenopausal women; conditions: calcium supplementation

In the case of `[Ca+2]` [calcium], the “women with PMS related symptoms” value [1] is listed as 30%, the “reduced bone loss, on average” value [2] is listed as “about 1 % year” and the “oral administered dose absorbed” value (oral) is listed as 20-33%. For the same molecule, the absorption efficiency (young adult, on average) was “about 30%”.
